The values that follow come from PMC9516332 (Frontiers in Oncology, 2022).

Common to all, as to assay: Kinase panel profiling at 1 µmol/L (MSA or IMAP), percentage inhibition
Holding throughout (assay type): biochemical

Assay [1] addresses T1, panel of 255 wild-type kinases (Homo sapiens, UniProt P15735).
T1 sequence (P15735 1-406): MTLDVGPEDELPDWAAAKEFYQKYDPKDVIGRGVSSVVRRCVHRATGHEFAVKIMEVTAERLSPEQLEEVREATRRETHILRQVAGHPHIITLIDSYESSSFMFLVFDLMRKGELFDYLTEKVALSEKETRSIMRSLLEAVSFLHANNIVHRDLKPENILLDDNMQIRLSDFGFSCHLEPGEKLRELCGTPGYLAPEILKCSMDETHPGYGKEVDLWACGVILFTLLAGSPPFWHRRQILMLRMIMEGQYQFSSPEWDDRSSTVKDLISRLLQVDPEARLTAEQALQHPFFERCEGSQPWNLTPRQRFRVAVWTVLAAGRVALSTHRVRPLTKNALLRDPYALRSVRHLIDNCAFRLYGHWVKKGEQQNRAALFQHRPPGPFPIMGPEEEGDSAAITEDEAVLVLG
The conditions noted are these: kinase PHKG2; 1 µmol/L single concentration; read-out: %-inhibition at 1 µmol/L, PHKG2.

Assay [2] concerns the target panel of 255 wild-type kinases (Homo sapiens, UniProt P22612). Conditions: kinase PKACγ; 1 µmol/L single concentration; read-out: %-inhibition at 1 µmol/L, PKACγ.
Assay [3] addresses panel of 255 wild-type kinases (Homo sapiens, UniProt P23443). The conditions noted are these: p70S6K; 1 µmol/L single concentration; read-out: %-inhibition, p70S6K.
Assay [4] addresses panel of 255 wild-type kinases (Homo sapiens, UniProt P31751). The conditions noted are these: AKT2 kinase assay; 1 µmol/L single concentration; read-out: %-inhibition AKT2.
Assay [5] has as its target T2, panel of 255 wild-type kinases (Homo sapiens, UniProt P53778).
T2 sequence (P53778 1-367): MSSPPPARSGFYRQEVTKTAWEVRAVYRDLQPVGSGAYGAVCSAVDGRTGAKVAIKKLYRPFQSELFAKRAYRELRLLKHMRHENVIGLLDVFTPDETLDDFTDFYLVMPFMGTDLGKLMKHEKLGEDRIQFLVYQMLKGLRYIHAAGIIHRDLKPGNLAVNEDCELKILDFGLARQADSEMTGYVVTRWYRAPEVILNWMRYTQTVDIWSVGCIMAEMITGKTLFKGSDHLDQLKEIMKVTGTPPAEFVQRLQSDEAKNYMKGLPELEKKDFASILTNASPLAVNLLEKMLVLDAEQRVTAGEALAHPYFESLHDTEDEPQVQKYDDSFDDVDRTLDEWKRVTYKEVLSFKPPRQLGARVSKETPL
Conditions: p38γ; 1 µmol/L single concentration; read-out: %-inhibition, p38γ.

Assay [6] deals with panel of 255 wild-type kinases (Homo sapiens, UniProt P68400). The conditions noted are these: kinase CK2α1/β; 1 µmol/L single concentration; read-out: %-inhibition at 1 µmol/L, CK2α1/β.
Assay [7] has as its target T3, panel of 255 wild-type kinases (Homo sapiens, UniProt Q13043).
T3 sequence (Q13043 1-487): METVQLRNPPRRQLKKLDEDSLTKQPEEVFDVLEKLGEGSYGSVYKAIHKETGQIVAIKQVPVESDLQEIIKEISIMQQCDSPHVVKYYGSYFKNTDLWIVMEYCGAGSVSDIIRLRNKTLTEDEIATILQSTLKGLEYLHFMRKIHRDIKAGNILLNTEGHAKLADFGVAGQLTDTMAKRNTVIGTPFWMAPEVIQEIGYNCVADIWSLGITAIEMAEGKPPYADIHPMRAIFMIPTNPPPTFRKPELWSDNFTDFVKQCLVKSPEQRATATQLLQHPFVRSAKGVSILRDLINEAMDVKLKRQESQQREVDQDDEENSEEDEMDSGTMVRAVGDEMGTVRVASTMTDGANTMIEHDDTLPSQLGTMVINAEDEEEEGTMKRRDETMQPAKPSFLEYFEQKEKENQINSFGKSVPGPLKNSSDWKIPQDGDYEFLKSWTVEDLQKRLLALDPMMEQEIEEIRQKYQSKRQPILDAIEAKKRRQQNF
Conditions: MST1; 1 µmol/L single concentration; read-out: %-inhibition, MST1.

Assay [8] addresses panel of 255 wild-type kinases (Homo sapiens, UniProt Q13464). The conditions noted are these: kinase ROCK1; 1 µmol/L single concentration; read-out: %-inhibition at 1 µmol/L, ROCK1.
Assay [9] concerns the target panel of 255 wild-type kinases (Homo sapiens, UniProt Q13882). The conditions noted are these: BRK kinase assay; 1 µmol/L single concentration; read-out: %-inhibition BRK.
Assay [10] has as its target panel of 255 wild-type kinases (Homo sapiens, UniProt Q14012). The conditions noted are these: CaMK1α kinase assay; 1 µmol/L single concentration; read-out: %-inhibition CaMK1α.
Assay [11] addresses panel of 255 wild-type kinases (Homo sapiens, UniProt Q16512). The conditions noted are these: kinase PKN1; 1 µmol/L single concentration; read-out: %-inhibition at 1 µmol/L, PKN1.
Assay [12] deals with panel of 255 wild-type kinases (Homo sapiens, UniProt Q16620). Conditions: kinase TRKB; 1 µmol/L single concentration; read-out: %-inhibition at 1 µmol/L, TRKB.
Assay [13] concerns the target T4, panel of 255 wild-type kinases (Homo sapiens, UniProt Q96BR1).
T4 sequence (Q96BR1 1-496): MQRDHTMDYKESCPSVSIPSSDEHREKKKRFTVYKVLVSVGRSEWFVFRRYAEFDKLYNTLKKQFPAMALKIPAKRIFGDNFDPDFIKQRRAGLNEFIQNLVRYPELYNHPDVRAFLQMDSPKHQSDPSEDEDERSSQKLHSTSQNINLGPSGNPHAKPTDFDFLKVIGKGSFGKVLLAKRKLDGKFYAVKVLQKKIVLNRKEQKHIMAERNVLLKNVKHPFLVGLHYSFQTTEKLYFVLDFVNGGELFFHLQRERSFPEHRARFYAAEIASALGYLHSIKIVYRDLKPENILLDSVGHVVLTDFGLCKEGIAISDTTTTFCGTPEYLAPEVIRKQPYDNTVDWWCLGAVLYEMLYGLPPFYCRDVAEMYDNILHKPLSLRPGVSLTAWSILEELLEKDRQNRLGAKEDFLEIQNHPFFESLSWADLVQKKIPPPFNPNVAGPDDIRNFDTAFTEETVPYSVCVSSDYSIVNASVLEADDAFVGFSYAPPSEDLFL
Conditions: kinase SGK3; 1 µmol/L single concentration; read-out: %-inhibition at 1 µmol/L, SGK3.

On to `CCn1c(=O)c(-c2cc(NC(=O)Nc3ccccc3)c(F)cc2Br)cc2cnc(NC)cc21` [ripretinib], for which the inhibition at 1 µM in assay [1] is 1.5%; in [2], 2.69%; in [3], 64%; in assay [4], -5%; in [5] it was 0.893%; in [6], 1%. Besides, the inhibition at 1 µM is 3% in assay [7]; -2.14% in assay [8]; 36% in [9]; -8% in assay [10]; 10% in assay [11]; 64% in [12]. For the same compound, in assay [13], the inhibition at 1 µM was -9%.

With `COc1ccc(CN2C3CC2CN(c2ccc(-c4cc(OCC(C)(C)O)cn5ncc(C#N)c45)cn2)C3)cn1` [selpercatinib], the inhibition at 1 µM is 6.5% in assay [1]; -2.63% in assay [2]; 42% in assay [3]; -1.76% in assay [4]; 0.277% in assay [5]; -1.82% in [6]. Also, the inhibition at 1 µM in assay [7] is -2.33%; in [8], 3.51%; in [9], 19%; in assay [10] it was -5.55%; in assay [11], 9%; in assay [12], 16%. Besides, in assay [13], the inhibition at 1 µM is -0.72%.

On to `Cn1cnc2c(F)c(Nc3ccc(Br)cc3Cl)c(C(=O)NOCCO)cc21` [selumetinib], for which the inhibition at 1 µM in assay [1] was 3.3%; in [2] it was -4%; in assay [3], 8%; in assay [4] it was 0.316%; in assay [5] it was -1.75%; in assay [6], -5%. Further, the inhibition at 1 µM was -2.38% in [7]; -1.15% in assay [8]; 6% in assay [9]; -4.36% in assay [10]; 10% in assay [11]; 4% in assay [12]. In addition, in assay [13], the inhibition at 1 µM was -4%.

Consider `Cc1cc(Nc2ncnc3ccc(NC4=NC(C)(C)CO4)cc23)ccc1Oc1ccn2ncnc2c1` [tucatinib], for which the inhibition at 1 µM in [1] was -0.185%; in assay [2] it was -0.548%; in [3], 15%; in [4] it was -1.46%; in assay [5] it was -1.75%; in assay [6], -4%. Moreover, the inhibition at 1 µM in [7] is 4%; in assay [8] it was -0.767%; in assay [9], 8%; in assay [10] it was -5.47%; in [11], 18%; in [12] it was 6%. Besides, the inhibition at 1 µM in [13] is -4%.

For `C=CC(=O)N1CCC([C@@H]2CCNc3c(C(N)=O)c(-c4ccc(Oc5ccccc5)cc4)nn32)CC1` [zanubrutinib], the inhibition at 1 µM was 4.22% in assay [1]; -4.62% in [2]; -3.21% in assay [3]; -4% in [4]; 4% in assay [5]; -2% in [6]. Also, the inhibition at 1 µM was -3% in [7]; -1.57% in assay [8]; 99% in assay [9]; -0.157% in assay [10]; -11% in [11]; 6.58% in assay [12]. Besides, in assay [13], the inhibition at 1 µM was -3.7%.
